Reference: patent publication US20080234384A1, “BIARYL AND BIHETEROARYL COMPOUNDS USEFUL IN TREATING IRON DISORDERS” (XENON PHARMACEUTICALS INC., priority 2007, published 2008)
Structures can show the parent of a compound that is named as a salt.

Molecular target: T1, DMT1 (Homo sapiens, UniProt P49281)
T1 sequence (P49281 1-568): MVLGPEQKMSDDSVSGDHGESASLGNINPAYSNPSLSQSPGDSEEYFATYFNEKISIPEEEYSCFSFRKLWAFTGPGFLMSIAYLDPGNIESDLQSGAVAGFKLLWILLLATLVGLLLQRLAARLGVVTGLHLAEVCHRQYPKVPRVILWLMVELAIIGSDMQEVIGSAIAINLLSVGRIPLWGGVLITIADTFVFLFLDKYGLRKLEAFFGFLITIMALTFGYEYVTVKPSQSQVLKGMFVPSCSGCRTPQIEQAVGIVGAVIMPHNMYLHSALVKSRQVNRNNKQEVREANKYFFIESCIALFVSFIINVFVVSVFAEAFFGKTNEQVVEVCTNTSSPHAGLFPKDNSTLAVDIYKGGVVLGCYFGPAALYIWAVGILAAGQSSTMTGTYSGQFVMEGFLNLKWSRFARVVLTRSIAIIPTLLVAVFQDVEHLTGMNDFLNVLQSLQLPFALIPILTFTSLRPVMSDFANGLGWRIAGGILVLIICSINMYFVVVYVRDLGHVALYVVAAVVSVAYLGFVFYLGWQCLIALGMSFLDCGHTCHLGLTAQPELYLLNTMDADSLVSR
Test: DMT1 Activity Assay (In Vitro Assay)
Assay type: cell-based
Conditions: read-out: IC50 Activity Level
From the text: In particular, identification of the compounds of the invention ability to modulate, preferably to inhibit, DMT1 activity, can be assessed using a variety of in vitro and in vivo assays, for measuring uptake of reduced iron (Fe^2+). One such protocol involves the screening of chemical agents for ability to modulate the activity of DMT1 thereby identifying it as a modulating agent. The in vitro activity of DMT1 can be measured in cell based assays by either directly measuring iron flux (using a radioactively labelled iron ^55Fe) or by measuring the fluorescence of a cell permeable iron fluorophore such as calcein. Stable cell lines overexpressing DMT1 are exposed to ^55Fe or loaded with calcein and then compound is applied. […] Alternatively, in another format electrophysiological techniques can be used to measure the current or iron or other metals traversing the cell membrane with DMT1 in a Xenopus oocyte or other cell based system (Gunshin et al., Nature, 1997, 31; 388(6641):482-8).
This example discloses various in vitro assay for testing and profiling test agents against DMT1 stably expressed in cells of either an endogenous or recombinant origin. These assays can use stable cell lines overexpressing DMT1 or intestinal cells and intestinal tissue expressing endogenous DMT1. DMT1 function could also be assessed in other cell types that express DMT1. Of greatest relevance would be the erythrocytes (e.g. K562 cells) or hepatocytes (e.g. […]).
DMT1 function can be assessed in a number of ways, including monitoring fluorescence changes of an iron fluorophore (e.g. calcein), monitoring uptake of radiolabelled iron (55Fe or ^59Fe) (Picard et al., J. Biol. Chem., 2000, 275(46):35738-45 and Wetli et al., Chem. Biol. 2006 September; 13(9):965-72), or by assessing the current or transport of iron and other metals into the cells or tissues using standard electrophysiological techniques (Gunshin et al., Nature, 1997, 388(6641):482-8.).
Variations of these assays involve alterations of incubation times, the iron status of the cells and tissues (which may be modulated by chemical chelators or by harvesting from iron deficient animals), the metal cation detected and the pH of the reaction can generally be made by conventional techniques known to those skilled in the art.

**Q.** With `N#CN=C(N)CCc1ccccc1Sc1ccccc1CCC(N)=NC#N` [Example 7, 2-(6-(2-(cyanoamidino)ethyl)phenyl)thio-1-(2-(cyanoamidino)ethyl)benzene] as the molecule, how does the IC50 read?
**A.** ≥ 1 µM

**Q.** With `N=C(N)SCc1ccccc1Sc1ccccc1CSC(=N)N` [Example 1.1, 2-[2-(2-carbamimidoylsulfanylmethylphenylsulfanyl)benzyl]isothiourea dihydrobromide] as the molecule, how does the IC50 read?
**A.** 0.1 to 1 µM

**Q.** Which IC50 does the source give for `N#CN=C(N)CCCc1ccccc1Sc1ccccc1CCCC(N)=NC#N` [Example 7.2, 2-(6-(3-(cyanoamidino)propyl)phenyl)thio-1-(3-(cyanoamidino)propyl)benzene] here?
**A.** ≥ 1 µM

**Q.** For `N=C(N)SCc1ccccc1C(=O)c1ccccc1CSC(=N)N` [Example 2.25, 2-(6-(amidinothiomethyl)phenyl)carbonyl-1-(amidinothiomethyl)benzene dihydrobromide], which IC50 is on record?
**A.** 0.1 to 1 µM

**Q.** With `N=C(N)SCc1cc(F)ccc1S(=O)(=O)c1ccc(F)cc1CSC(=N)N` [Example 2.4, 2-[2-(2-carbamimidoylsulfanylmethyl-4-fluorophenylsulfonyl)-5-fluorobenzyl]isothiourea dihydrobromide] as the molecule, how does the IC50 read?
**A.** ≥ 1 µM

**Q.** Which IC50 does the source give for `COc1ccc(Sc2ccccc2CSC(=N)N)c(CSC(=N)N)c1` [Example 1.4, 2-[2-(2-carbamimidoylsulfanylmethyl-4-methoxyphenylsulfanyl)-benzyl]isothiourea dihydrobromide] here?
**A.** ≥ 1 µM

**Q.** For `Cc1cccc(CSC(=N)N)c1Sc1ccccc1CSC(=N)N` [Example 1.8, 2-[2-(2-carbamimidoylsulfanylmethyl-6-methylphenylsulfanyl)-benzyl]isothiourea dihydrobromide], which IC50 is on record?
**A.** ≥ 1 µM

**Q.** Which IC50 does the source give for `N=C(N)SCc1cc(Cl)ccc1Oc1ccc([N+](=O)[O-])cc1CSC(=N)N` [Example 2.20, 2-[2-({[amino(imino)methyl]thio}methyl)-4-chlorophenoxy]-5-nitrobenzyl imidothiocarbamate dihydrobromide] here?
**A.** ≥ 1 µM

Test system: not given
Test: not given
Conditions: not given

**Q.** With `N=C(N)SCc1ccccc1Oc1cc(Cl)ccc1CSC(=N)N` (as salt: hydrobromid) [Example 2.18, 2-[2-({[amino(imino)methyl]thio}methyl)-5-chlorophenoxy]benzyl imidothiocarbamate dihydrobromide] as the molecule, how does the melting point read?
**A.** > 220 °C

**Q.** For `N=C(N)SCc1ccccc1C(=O)c1ccccc1CSC(=N)N` (as salt: hydrobromid) [Example 2.25, 2-(6-(amidinothiomethyl)phenyl)carbonyl-1-(amidinothiomethyl)benzene dihydrobromide], which melting point is on record?
**A.** 239 to 240 °C (dec.)

**Q.** For `N=C(N)SCc1ccccc1Oc1ccc(F)cc1CSC(=N)N` (as salt: hydrobromid) [Example 2.21, 2-[2-({[amino(imino)methyl]thio}methyl)-4-fluorophenoxy]benzyl imidothiocarbamate dihydrobromide], which melting point is on record?
**A.** > 220 °C

**Q.** Which melting point does the source give for `N=C(N)SCc1ccccc1C(=O)c1cc(F)ccc1CSC(=N)N` (as salt: hydrobromid) [Example 2.27, 2-(6-(amidinothiomethyl)phenyl)carbonyl-1-(amidinothiomethyl)-4-fluorobenzene dihydrobromide] here?
**A.** > 250 °C

**Q.** With `N=C(N)SCc1ccccc1Oc1cccc(Cl)c1CSC(=N)N` (as salt: hydrobromid) [Example 2.17, 2-[2-({[amino(imino)methyl]thio}methyl)-3-chlorophenoxy]benzyl imidothiocarbamate dihydrobromide] as the molecule, how does the melting point read?
**A.** 150 to 152 °C

**Q.** Which melting point does the source give for `N=C(N)SCc1cc([N+](=O)[O-])ccc1Oc1cc(Cl)ccc1CSC(=N)N` (as salt: hydrobromid) [Example 2.19, 2-[2-({[amino(imino)methyl]thio}methyl)-5-chlorophenoxy]-5-nitrobenzyl imidothiocarbamate dihydrobromide] here?
**A.** > 220 °C

**Q.** For `N=C(N)SCc1cc(F)ccc1Oc1ccc([N+](=O)[O-])cc1CSC(=N)N` (as salt: hydrobromid) [Example 2.14, 2-[2-({[amino(imino)methyl]thio}methyl)-4-fluorophenoxy]-5-nitrobenzyl imidothiocarbamate dihydrobromide], which melting point is on record?
**A.** > 220 °C

**Q.** Which melting point does the source give for `N=C(N)SCc1cc(F)ccc1Oc1ccc(Cl)cc1CSC(=N)N` (as salt: hydrobromid) [Example 2.11, 2-[2-(2-carbamimidoylsulfanylmethyl-4-chlorophenoxy)-5-fluorobenzyl]isothiourea dihydrobromide] here?
**A.** > 230 °C

**Q.** Which melting point does the source give for `COC(=O)c1cccc(CSC(=N)N)c1-c1c(CSC(=N)N)cccc1C(=O)OC` (as salt: hydrobromid) [Example 2.24, dimethyl 6,6′-bis(carbamimidoylthiomethyl)biphenyl-2,2′-dicarboxylate dihydrobromide] here?
**A.** 222 to 225 °C

**Q.** With `N=C(N)SCc1ccccc1C(=O)c1cc(Cl)ccc1CSC(=N)N` (as salt: hydrobromid) [Example 2.28, 2-(6-(amidinothiomethyl)phenyl)carbonyl-1-(amidinothiomethyl)-4-chlorobenzene dihydrobromide dihydrobromide] as the molecule, how does the melting point read?
**A.** > 250 °C

**Q.** For `N=C(N)SCc1ccccc1C(=O)c1ccc(Cl)cc1CSC(=N)N` (as salt: hydrobromid) [Example 2.29, 2-(6-(amidinothiomethyl)phenyl)carbonyl-1-(amidinothiomethyl)-5-chlorobenzene dihydrobromide], which melting point is on record?
**A.** > 250 °C

**Q.** With `NC(N)=NC(=O)c1ccccc1Sc1ccccc1C(=O)N=C(N)N` [Example 4, 2,2′-thiobis(N-(diaminomethylene)benzamide)] as the molecule, how does the melting point read?
**A.** > 220 °C

**Q.** Which melting point does the source give for `N=C(N)SCc1ccccc1C(=O)c1ccc(F)cc1CSC(=N)N` (as salt: hydrobromid) [Example 2.26, 2-(6-(amidinothiomethyl)phenyl)carbonyl-1-(amidinothiomethyl)-5-fluorobenzene dihydrobromide] here?
**A.** > 250 °C

**Q.** With `N=C(N)SCc1ccccc1Oc1ccc(Cl)cc1CSC(=N)N` (as salt: hydrobromid) [Example 2.16, 2-[2-({[amino(imino)methyl]thio}methyl)-4-chlorophenoxy]benzyl imidothiocarbamate dihydrobromide] as the molecule, how does the melting point read?
**A.** > 220 °C

**Q.** For `N#CN=C(N)CCc1ccccc1Sc1ccccc1CCC(N)=NC#N` [Example 7, 2-(6-(2-(cyanoamidino)ethyl)phenyl)thio-1-(2-(cyanoamidino)ethyl)benzene], which melting point is on record?
**A.** 188 to 190 °C

**Q.** For `N=C(N)SCc1cc(F)ccc1Oc1cccc(Cl)c1CSC(=N)N` (as salt: hydrobromid) [Example 2.10, 2-[2-(2-carbamimidoylsulfanylmethyl-3-chlorophenoxy)-5-fluorobenzyl]isothiourea dihydrobromide], which melting point is on record?
**A.** 204 to 206 °C

**Q.** Which melting point does the source give for `N=C(N)SCc1cc(Cl)ccc1Oc1ccc([N+](=O)[O-])cc1CSC(=N)N` (as salt: hydrobromid) [Example 2.20, 2-[2-({[amino(imino)methyl]thio}methyl)-4-chlorophenoxy]-5-nitrobenzyl imidothiocarbamate dihydrobromide] here?
**A.** > 220 °C

**Q.** For `N#CN=C(N)CCCc1ccccc1Sc1ccccc1CCCC(N)=NC#N` [Example 7.2, 2-(6-(3-(cyanoamidino)propyl)phenyl)thio-1-(3-(cyanoamidino)propyl)benzene], which melting point is on record?
**A.** 155 to 157 °C

**Q.** For `N=C(N)SCc1ccc(Cl)cc1Oc1cc([N+](=O)[O-])ccc1CSC(=N)N` (as salt: hydrobromid) [Example 2.9, 2-[2-({[amino(imino)methyl]thio}methyl)-5-chlorophenoxy]-4-nitrobenzyl imidothiocarbamate dihydrobromide], which melting point is on record?
**A.** > 220 °C

**Q.** Which melting point does the source give for `N=C(N)SCc1cccc(CSC(=N)N)c1-c1c(CSC(=N)N)cccc1CSC(=N)N` (as salt: hydrobromid) [Example 2.23, biphenyl-2,2′-6,6′-tetrayltetrakis(methylene)tetracarbamimidothioate tetrahydrobromide] here?
**A.** 233 to 235 °C
